The source of these data is patent publication US20210395208A1, “AMORPHOUS COMPOUNDS OF FORMULA (I) AND AMORPHOUS COMPOUNDS OF FORMULA (I) SALTS” (H. Lundeck A/S, priority 2018, published 2021).

Common to all, as to format: physicochemical
Series [1] in a line: Actual glass transition temperature (Tg) of the amorphous form by DSC. As to conditions: amorphous form made by melt quenching in the DSC pan, heated 10° C./min. The protocol: (§1) The terms “actual glass transition temperature” and “calculated glass transition temperature” as used herein refers to the measured (actual) and theoretical (calculated) glass transition temperature associated with a specific compound of Formula (I) or compound of Formula (I) salt. The actual glass transition temperature is determined from the DSC thermogram for the amorphous material, which is exemplified in example 1 and depicted in FIG. 2. The calculated glass transition temperature is calculated as ⅔ of the melting temperature (in Kelvin) of the crystalline form. FIG. 1 illustrate DSC thermograms of crystalline forms of compound (Ia), from which the melting temperature can be determined. The calculation procedure for estimation of the glass transition temperature is described in example 1.
(§2) As stated in the description of the present application, it is generally recognized that the glass transition temperature can be estimated as ⅔ of the melting temperature of the crystalline material (measured in Kelvin). From the DSC thermograms in FIG. 1 (left), it is seen that the crystalline base of compound (Ia) has an endothermic peak around 60° C. corresponding to the melting of the crystals. Based on the melting temperature of the crystalline base of compound (la), the calculated glass transition temperature of the amorphous form of this compound is thus ⅔*(60° C.+273)=222 K or −51° C. […] This means that the actual measured Tg of this amorphous form is around 5° C. and not −51° C. as calculated using the Beaman Rule.
(§3) Similar experiments were performed with the hydrogen fumarate of compound (Ia). Here the calculated Tg was based on the observed endothermic peak around 203° C. corresponding to the melting of the crystal (FIG. 1—right). Consequently, the calculated Tg is ⅔ *(203° C.+273)=317 K or 44° C. The thermogram of the amorphous form is shown in FIG. 2 (right) and depicts a change in heat capacity around 66° C. corresponding to a glass transition. This means that the actual measured Tg of the amorphous hydrogen fumarate of compound (Ia) is around 66° C. and not 44° C. as calculated.
Different scanning programs are used depending on the purpose of the analysis as given in example 9. In all DSC-experiments, 2-5 mg sample is packed into Tzero aluminum hermetic pans with a perforated lid, and the measurement is performed under 50 mL/min dry nitrogen gas purge.
Melting point and glass transition determined on the base of compound (Ia): Sample of 2-3 mg was packed into Tzero aluminum hermetic pans with a perforated lid and heated 1° C./min to 80° C. (giving the melting point), kept isothermal for 2 min., equilibrated at −50° C., and heated 10° C./min to 110° C. (giving the glass transition of the formed amorphous solid). […]

Series [2] in a line: Calculated glass transition temperature, 2/3 of the crystalline melting temperature in Kelvin (Beaman's rule). As to conditions: crystalline melting points around 60° C. (base) and 203° C. (hydrogen fumarate). As for the experimental part: as §1
The glass transition temperature can be estimated as ⅔ of the melting temperature of the crystalline material (measured in Kelvin). This relationship is known as the “Beaman's rule” and applies to a wide range of both organic, inorganic, simple and polymeric materials. (Beaman, R. G. Journal of Polymer Science, 1952, 9(5): 470-472).
as §2, §3

Series [3] is described as follows: Physical stability of amorphous solids by XRPD on storage at ambient conditions. The note with it: ambient conditions (15-35 degrees Celsius, 15-75 percent RH), 96 hours, 1, 4, 9 weeks, 5, 8, 12 months. The protocol: The term “ambient conditions” as used herein refers to conditions with a temperature range of 15-35 degrees Celsius and a relative humidity range of 15-75 percent.
X-Ray powder diffractograms were measured on a PANalytical X′Pert PRO X-Ray Diffractometer using CuKα1 radiation (λ=1.5406 Å). The samples were measured in reflection mode in the 2θ-range 3-40° using an X'celerator detector. (See FIGS. 3, 4 and 5).
The amorphous base and the fumarate salt of compound (Ia) were analyzed using XRPD to determine the physical stability of these solid forms. The presence of a substantially amorphous solid form was confirmed by a diffuse halo XRPD pattern similar to FIG. 3, which is characteristic for a solid amorphous form.
The short-term physical stability of the amorphous solids was analyzed immediately after preparation; the samples were analyzed by XRPD for 96 hours consecutively by alternating measurements every 2 hours. The long-term stability was then assessed by storing the amorphous solids under ambient conditions and analyzing them by XRPD after 1, 4 and 9 weeks as well as 5, 8 and 12 months.

A short description of series [4]: Recrystallization of amorphous material upon heating above Tg (DSC). The note with it: DSC thermogram of the amorphous material, FIG. 2. As for the experimental part:
Melting point and glass transition determined on the base of compound (Ia): Sample of 2-3 mg was packed into Tzero aluminum hermetic pans with a perforated lid and heated 1° C./min to 80° C. (giving the melting point), kept isothermal for 2 min., equilibrated at −50° C., and heated 10° C./min to 110° C. (giving the glass transition of the formed amorphous solid).
Melting point and glass transition of the hydrogen fumarate of compound (Ia): Sample heated 1° C./min to 210° C. (giving the melting point), kept isothermal for 2 min., equilibrated at −50° C., and heated 10° C./min to 230° C. (giving the glass transition of the formed amorphous solid).

Structures can show the parent of a compound that is named as a salt.

Turning to `[2H]c1c([2H])c([2H])c([C@@H]2C[C@@H](N3CCN(C([2H])([2H])[2H])C(C)(C)C3)c3cc(Cl)ccc32)c([2H])c1[2H]` [amorphous base of compound (Ia)], the “actual (measured) glass transition temperature Tg” value was “around 5 °C” in series [1] and “about 4 °C” in series [1] (listed as amorphous base). The “calculated glass transition temperature Tg” value in series [2] is −51 °C; in series [2] (listed as amorphous base), “about −51 °C”. In addition, the “physical stability of the amorphous solid (XRPD pattern)” value in series [3] (listed as free base) is reported as “weak indication of crystallization of the free base after 5 months”. Moreover, in series [4], the “recrystallization upon heating above the glass transition” value is on record as “do not recrystallize easily above the glass transitions”.
Regarding `[2H]c1c([2H])c([2H])c([C@@H]2C[C@@H](N3CCN(C([2H])([2H])[2H])C(C)(C)C3)c3cc(Cl)ccc32)c([2H])c1[2H]` [amorphous hydrogen fumarate of compound (Ia)], the “actual (measured) glass transition temperature Tg” value in series [1] was “around 66 °C”; in series [1] (listed as amorphous hydrogen fumarate salt), 66 °C. The “calculated glass transition temperature Tg” value in series [2] is 44 °C; in series [2] (listed as amorphous hydrogen fumarate salt of compound (Ia)), ~44 °C. The “physical stability of the amorphous solid (XRPD pattern)” value in series [3] is listed as “substantially amorphous solids at all timepoints”. Besides, in series [4], the “recrystallization upon heating above the glass transition” value is “do not recrystallize easily above the glass transitions”.
